{"source": "patent US12415819B2", "about": "“Cu- and Ni-catalyzed decarboxylative borylation reactions” (The Scripps Research Institute, priority 2017, dated 2025)", "assay": "in vitro", "details": "human", "procedure": "Digoxin, fenoterol, and propranol were used as standards respectively. Transport Method:\nThe transport buffer used in the study was HBSS with 10 mM HEPES at pH 7.40±0.05. Compounds were tested at 2 μM bi-directionally in duplicates. Digoxin was tested at […] bi-directionally in a duplicate, while fenoterol and propranolol were tested at 2 μM in A(apical) to B (basolateral) direction in duplicates. The final DMSO concentration was adjusted to less than 1%. The plate was incubated for 2 hours in a CO2 incubator at 37±1° C., with 5% CO2 at saturated humidity without shaking. All samples, after mixing with acetonitrile containing internal standard, were centrifuged at 4000 rpm for 20 min. Subsequently,100 μL supernatant solution was diluted with 100 μL distilled water for LC/MS/MS analysis. Concentrations of test and control compounds in starting solution, donor solution, and receiver solution were quantified by LC/MS/MS methodologies, using peak area ratio of analyte/internal standard. After transport assay, lucifer yellow rejection assay was applied to determine the Caco-2 cell monolayer integrity.\nData analysis: The apparent permeability coefficient Papp (cm/s) was calculated using the equation:\nThe efflux ratio was calculated using the equation: Efflux ratio=Papp(BA)/Papp(AB)\nPercent recovery was calculated using the equation: % Recovery=100×[(Vr·Cr)+(Vd·Cd)]/(Vd·C0) Where Vd is the volume in the donor chambers (0.075 mL on the apical side, 0.25 mL on the basolateral side); Cd and Cr are the final concentrations of transport compound in donor and receiver chambers, respectively.", "data": [{"molecule": "CC(C)[C@H](NC(=O)[C@@H]1CCCN1C(=O)[C@@H](NC(=O)c1ccc(C(=O)NS(=O)(=O)c2ccc(Cl)cc2)cc1)C(C)C)B(O)O", "note": "[Compound 51, (1-((S)-1-((4-(((4-chlorophenyl)sulfonyl)carbamoyl)benzoyl)-L-valyl)pyrrolidine-2-carboxamido)-2-methylpropyl)boronic acid]", "values": [{"measurement": "Papp A→B at 120 min, 2 μM", "setting": "Caco-2, pH 7.4", "result": "< 0.16", "unit": "×10⁻⁶ cm/s"}, {"measurement": "Papp A→B at 2 h, 2 μM", "setting": "Caco-2, pH 7.4", "result": "< 0.08", "unit": "×10⁻⁶ cm/s"}, {"measurement": "Papp B→A at 120 min, 2 μM", "setting": "Caco-2, pH 7.4", "result": 0.61, "unit": "×10⁻⁶ cm/s"}, {"measurement": "Papp B→A at 2 h, 2 μM", "setting": "Caco-2, pH 7.4", "result": "< 0.12", "unit": "×10⁻⁶ cm/s"}, {"measurement": "efflux ratio at 2 h, 2 μM", "setting": "Caco-2, pH 7.4", "result": "> 3.91"}, {"measurement": "recovery at 2 h, 2 μM", "setting": "Caco-2, pH 7.4, Mean Recovery % A to B", "result": "< 88.2", "unit": "%"}, {"measurement": "recovery at 2 h, 2 μM", "setting": "Caco-2, pH 7.4, Mean Recovery % B to A", "result": 99.1, "unit": "%"}]}]}
